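Cells were grown in 96-well plates and exposed to each compound for 48 hours at five concentrations; endpoints were interpolated linearly between bracketing concentrations, or set to the highest concentration if not reached. GI50: concentration for 50% inhibition of growth.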 Active and inactive are the calls of the source. No stated cut-off is given here; in the data, active = GI50 up to about 1.1 µM and inactive = higher.
Key:
Test in all cases: DTP human tumour cell line panel, 48 h
NCI-H226 = test system: NCI-H226
SW-620 = test system: SW-620
ACHN = test system: ACHN
UACC-62 = test system: UACC-62
HOP-92 = test system: HOP-92
TK-10 = test system: TK-10
EKVX = test system: EKVX
OVCAR-8 = test system: OVCAR-8
NCI-H460 = test system: NCI-H460
SF-295 = test system: SF-295
KM12 = test system: KM12
OVCAR-3 = test system: OVCAR-3
SK-OV-3 = test system: SK-OV-3
DU-145 = test system: DU-145
PC-3 = test system: PC-3
HCC 2998 = test system: HCC 2998
RPMI-8226 = test system: RPMI-8226
M14 = test system: M14
SF-539 = test system: SF-539
MDA-MB-435 = test system: MDA-MB-435
NCI-H23 = test system: NCI-H23
U-251 = test system: U-251
A549 = test system: A549
UO-31 = test system: UO-31
A498 = test system: A498
MDA-MB-231 = test system: MDA-MB-231
LOX IMVI = test system: LOX IMVI
CAKI-1 = test system: CAKI-1
SNB-19 = test system: SNB-19
IGROV-1 = test system: IGROV-1
SN12C = test system: SN12C
786-0 = test system: 786-0
MDA-N = test system: MDA-N
MOLT-4 = test system: MOLT-4
NCI/ADR-RES = test system: NCI/ADR-RES
T47D = test system: T47D
SK-MEL-5 = test system: SK-MEL-5
COLO 205 = test system: COLO 205
K562 = test system: K562
MCF7 = test system: MCF7
OVCAR-4 = test system: OVCAR-4
HL-60 = test system: HL-60
HCT-15 = test system: HCT-15
BT-549 = test system: BT-549
SK-MEL-2 = test system: SK-MEL-2
OVCAR-5 = test system: OVCAR-5
SK-MEL-28 = test system: SK-MEL-28
HCT-116 = test system: HCT-116
HT-29 = test system: HT-29
UACC-257 = test system: UACC-257
Hs-578T = test system: Hs-578T
CCRF-CEM = test system: CCRF-CEM
NCI-H522 = test system: NCI-H522
HOP-62 = test system: HOP-62
Malme-3M = test system: Malme-3M
SNB-75 = test system: SNB-75
SF-268 = test system: SF-268

Measured: GI50

CCc1n[nH]c(=O)n1CCO
> 100 µM: HCT-15
inactive: NCI-H226 > 100 µM | SW-620 > 100 µM | ACHN > 100 µM | UACC-62 > 100 µM | HOP-92 > 100 µM | TK-10 > 100 µM | EKVX > 100 µM | OVCAR-8 > 100 µM | NCI-H460 > 100 µM | SF-295 > 100 µM | KM12 > 100 µM | OVCAR-3 > 100 µM | SK-OV-3 > 100 µM | DU-145 > 100 µM | PC-3 > 100 µM | HCC 2998 > 100 µM | RPMI-8226 > 100 µM | M14 > 100 µM | SF-539 > 100 µM | MDA-MB-435 > 100 µM | NCI-H23 > 100 µM | U-251 > 100 µM | A549 > 100 µM | UO-31 > 100 µM | A498 > 100 µM | MDA-MB-231 > 100 µM | LOX IMVI > 100 µM | CAKI-1 > 100 µM | SNB-19 > 100 µM | IGROV-1 > 100 µM | SN12C > 100 µM | 786-0 > 100 µM | MDA-N > 100 µM | MOLT-4 > 100 µM | NCI/ADR-RES > 100 µM | T47D > 100 µM | SK-MEL-5 > 100 µM | COLO 205 > 100 µM | K562 > 100 µM | MCF7 > 100 µM | OVCAR-4 > 100 µM | HL-60 > 100 µM | BT-549 > 100 µM | SK-MEL-2 > 100 µM | OVCAR-5 > 100 µM | SK-MEL-28 > 100 µM | HCT-116 > 100 µM | HT-29 > 100 µM | UACC-257 > 100 µM

Cc1ccc2c(O)cc(-c3sc4ccccc4c3C)nc2n1
active: UO-31 0.661 µM
17.7 µM: HCT-15
inactive: NCI-H226 20.4 µM | Hs-578T 19.9 µM | UACC-62 16.9 µM | HOP-92 4.46 µM | TK-10 46.6 µM | EKVX 25.5 µM | CCRF-CEM 23.9 µM | OVCAR-8 25.2 µM | NCI-H522 16.4 µM | SF-295 17.1 µM | KM12 15.7 µM | HOP-62 25.1 µM | SK-OV-3 21.7 µM | DU-145 22.9 µM | RPMI-8226 14.5 µM | M14 17.5 µM | Malme-3M 16.7 µM | A549 22.7 µM | A498 22.4 µM | MDA-MB-231 49.5 µM | LOX IMVI 21.8 µM | CAKI-1 21.6 µM | SNB-19 29.9 µM | IGROV-1 19.8 µM | SN12C 29 µM | 786-0 20.5 µM | MDA-N 13.2 µM | MOLT-4 26.1 µM | NCI/ADR-RES 17.1 µM | T47D 14.5 µM | COLO 205 23.4 µM | SNB-75 17.3 µM | K562 27.1 µM | MCF7 41.7 µM | SF-268 21.6 µM | OVCAR-4 19.1 µM | BT-549 16.9 µM | SK-MEL-2 37 µM | OVCAR-5 34 µM | SK-MEL-28 19.1 µM | HCT-116 20.1 µM | HT-29 25.9 µM | UACC-257 32.3 µM
